Results on 14 compounds are retold here after BindingDB's records for doi:10.1080/14756360400004565 (Universit&Eacute, 2004).

Chain of Glycogen synthase kinase-3 beta (P49841 whole entry): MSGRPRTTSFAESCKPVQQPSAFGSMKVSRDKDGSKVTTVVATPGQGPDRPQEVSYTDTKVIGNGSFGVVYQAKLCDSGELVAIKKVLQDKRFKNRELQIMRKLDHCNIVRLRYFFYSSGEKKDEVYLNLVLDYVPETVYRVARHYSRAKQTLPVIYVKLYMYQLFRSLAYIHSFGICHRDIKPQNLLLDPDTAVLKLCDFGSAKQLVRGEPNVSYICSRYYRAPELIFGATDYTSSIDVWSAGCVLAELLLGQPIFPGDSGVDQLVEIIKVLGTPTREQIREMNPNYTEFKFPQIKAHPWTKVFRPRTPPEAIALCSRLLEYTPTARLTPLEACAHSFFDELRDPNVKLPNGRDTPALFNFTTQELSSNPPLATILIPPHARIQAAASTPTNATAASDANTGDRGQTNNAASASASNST

This test concerns the target Glycogen synthase kinase-3 beta (Homo sapiens, UniProt P49841). As to the kind of experiment: Kinase Assay. The method, then:
Kinase activities were assayed according to the methodology developed by the Cell Cycle Group of the Station Biologique (CNRS).
`COc1ccc(-c2csc3c2-n2cccc2C3O)cc1OCc1ccccc1` (centres undefined) [Thienopyrrolizine derivative, 13e]: the IC50 is over 50 µM.

In turn, `COc1cccc(-c2csc3c2-n2cccc2C3=O)c1` [Thienopyrrolizine derivative, 4b] registered an IC50 of over 50 µM. To `COc1ccc(-c2csc3c2-n2cccc2C3=O)cc1OCc1ccccc1` belongs over 50 µM; to `CC(=O)Oc1ccc(-c2csc3c2-n2cccc2C3=O)cc1OC(C)=O` [Thienopyrrolizine derivative, 4h], over 50 µM.

Regarding `COc1ccc(-c2csc3c2-n2cccc2C3=O)cc1O` [MR-22388], the IC50 turned out to be 1.5 µM.

Turning to `COc1ccc(-c2csc3c2-n2cccc2C3=O)cc1OC(C)=O` [Thienopyrrolizine derivative, 4k], the IC50 is over 50 µM. To `O=C1c2cscc2-n2cccc21` [Thienopyrrolizine derivative, 5] belongs over 50 µM. The same measure for `COc1ccc(-c2csc3c2-n2cccc2C3=O)cc1OC(=O)C(C)(C)C` [Thienopyrrolizine derivative, 4m]: over 50 µM; for `CCOc1ccc(-c2csc3c2-n2cccc2C3=O)cc1` [Thienopyrrolizine derivative, 4c]: over 50 µM. `COc1ccc(-c2csc3c2-n2cccc2C3=O)cc1OC(=O)CCCC(=O)O` [Thienopyrrolizine derivative, 4n] displayed an IC50 of 11 µM. `CCC(=O)Oc1ccc(-c2csc3c2-n2cccc2C3=O)cc1OC(=O)CC` [Thienopyrrolizine derivative, 4i] gave an IC50 of over 50 µM. The same measure for `COc1ccc(-c2csc3c2-n2cccc2C3O)cc1O` (centres undefined) [Thienopyrrolizine derivative, 13g]: 19 µM. The same measure for `CCOC(=O)Oc1cc(-c2csc3c2-n2cccc2C3=O)ccc1OC` [Thienopyrrolizine derivative, 4l]: over 50 µM; for `Cc1ccc(-c2csc3c2-n2cccc2C3=O)cc1` [Thienopyrrolizine derivative, 4a]: over 50 µM.
